# Results: US10870625B2, “Zwitterionic propargyl-linked antifolates useful for treating bacterial infections” (THE UNIVERSITY OF CONNECTICUT, priority 2016, dated 2020)
# Read-outs that look alike come from different tables or passages of the source. Marks after values point to notes of the source that are not given here.
# Experiments:
# [1] = system: Sa(H30N) strain
# [2] = system: S. aureus ATCC strain 43300; assay: microbe, parasite or virus in culture; type: cell-based, Staphylococcus aureus; settings: for MIC Sa43300: Table 12, wild-type strain
# [3] = biological target: S. aureus (Sa) DHFR (Staphylococcus aureus, UniProt P0A017); type: biochemical; settings: Table 2
# [4] = system: E. coli NR698; type: cell-based, Escherichia coli
# [5] = biological target: E. coli (Ec) DHFR (Escherichia coli (strain K12), UniProt P0ABQ4); assay: E. coli DHFR enzyme inhibition (NADPH oxidation, 340 nm); type: biochemical
# [6] = system: E. coli (ATCC 25922); assay: E. coli MIC, microdilution broth assay; type: cell-based, Escherichia coli
# Description: Minimum inhibitory concentrations were determined using E. coli (ATCC 25922) and the microdilution broth assay with an inoculum of […] CFU/mL in Isosensitest Broth (Oxoid).
# [7] = system: Mtb; assay: M. tuberculosis MIC, microtiter broth dilution (Table 6); type: cell-based, Mycobacterium tuberculosis
# Description: (§1) (provided by Leonid Heifets).
# (§2) Each isolate was tested in duplicate.
# [8] = biological target: MtbDHFR (Mycobacterium tuberculosis (strain ATCC 25618 / H37Rv), UniProt P9WNX1); assay: M. tuberculosis DHFR enzyme inhibition; type: biochemical
# [9] = biological target: CYP2D6 (Homo sapiens (Human), UniProt P10635); assay: Cytochrome P450 inhibition, CYP2D6
# [10] = system: Mtb 352; type: cell-based, Mycobacterium tuberculosis; settings: MDR strain
# [11] = Microsomal stability assay (UPLC of parent compound)
# [12] = system: Mtb Erdman; assay: Mtb Erdman MIC, microtiter broth dilution; type: cell-based, Mycobacterium tuberculosis
# Description: as §1, §2
# [13] = system: Mtb 56; type: cell-based, Mycobacterium tuberculosis; settings: MDR strain
# [14] = system: Mtb C-31; type: cell-based, Mycobacterium tuberculosis; settings: MDR strain
# [15] = system: Mtb 5; type: cell-based, Mycobacterium tuberculosis; settings: XDR strain
# [16] = system: Mtb 276; type: cell-based, Mycobacterium tuberculosis; settings: MDR strain
# [17] = biological target: CYP3A4 (Homo sapiens (Human), UniProt P08684); assay: Cytochrome P450 inhibition, CYP3A4
# [18] = system: Mtb 365; type: cell-based, Mycobacterium tuberculosis; settings: MDR strain
Compound,MIC Sa(H30N) [1] [µg/mL],MIC Sa43300 [2] [µg/mL],IC50 [3] [nM],MIC E. coli NR698 ([4]; Table 2) [µg/mL],MIC S. aureus 43300 [2] [µg/mL],IC50 ([5]; Table 2) [nM],"MIC E. coli 25922 ([6]; Table 2, wild-type E. coli)",also measured
"CCc1nc(N)nc(N)c1C#CC(C)c1cc(-c2ccncc2)ccc1OC (racemic) [C, reference compound]",2.5,0.625,–,–,–,–,–,–
CCc1nc(N)nc(N)c1C#CCc1cc(-c2ccccc2C(=O)O)ccc1OC [Compound 13],–,–,359,20,>20,195,>32 µg/mL,–
CCc1nc(N)nc(N)c1C#CCc1cc(-c2ccccc2C(=O)O)ccc1OC [Compound 14],–,–,157,0.0391,0.625,526,>20 µg/mL,MIC Mtb [7]: 1 µg/mL; IC50 [8]: 311 nM
CCc1nc(N)nc(N)c1C#CCc1cc(-c2ccc(C(=O)O)cc2)ccc1OC [Compound 15],0.1563,0.0195,32,0.0098,0.0195,90,>20 µg/mL,concentration required for inhibition of CYP2D6 [9]: greater than 50 μM; MIC Mtb 352 [10]: 16 µg/mL; phase I half-life ([11]; phase I): 1.65 h; phase II half-life ([11]; phase II): approximately 87 min; MIC Mtb Erdman [12]: 16 µg/mL; MIC Mtb56 [13]: 16 µg/mL; MIC Mtb [7]: 4 µg/mL; MIC Mtb C-31 [14]: >32 µg/mL; MIC Mtb 5 [15]: 8 µg/mL; MIC Mtb 276 [16]: 16 µg/mL; concentration required for inhibition of CYP3A4 [17]: greater than 50 μM; MIC Mtb 365 [18]: 4 µg/mL; IC50 [8]: 173 nM
CCc1nc(N)nc(N)c1C#CCc1cc(OC)cc(-c2ccc(C(=O)O)cc2)c1 [Compound 16],0.1563,0.0195,–,0.0049,0.0195,507,>20 µg/mL,–
CCc1nc(N)nc(N)c1C#C[C@@H](C)c1cc(-c2ccc(C(=O)O)cc2)ccc1OC [Compound 30],–,–,–,0.0012,0.0195,–,20 µg/mL,–
CCc1nc(N)nc(N)c1C#C[C@H](C)c1cc(OC)cc(-c2ccc(C(=O)O)cc2)c1 [Compound 31],0.0781,0.0098,–,0.0024,0.0098,–,10 µg/mL,–
CCc1nc(N)nc(N)c1C#C[C@@H](C)c1cc(OC)cc(-c2ccc(C(=O)O)cc2)c1 [Compound 32],0.0781,0.0098,–,0.0024,0.0098,–,10 µg/mL,–
CCc1nc(N)nc(N)c1C#C[C@H](C)c1cc(-c2ccc(C(=O)OC)cc2)ccc1OC [Compound 33],–,–,22,0.156,–,34,>20* μg/mL,MIC S. aureus 43300 ([2]; Table 2): 0.625 µg/mL
CCc1nc(N)nc(N)c1C#C[C@@H](C)c1cc(-c2ccc(C(=O)OC)cc2)ccc1OC [Compound 34],–,–,205,1.875,–,172,>20* μg/mL,MIC S. aureus 43300 ([2]; Table 2): 10 µg/mL
CCc1nc(N)nc(N)c1C#CCc1cc2c(c(-c3ccc(O)cc3)c1)OCO2 [Compound 37],–,–,–,–,–,–,–,MIC E. coli NR698 ([4]; Table 3): 0.002 µg/mL; IC50 ([5]; Table 3): 2500 nM; MIC E. coli 25922 ([6]; Table 3): 0.625 µg/mL
CCc1nc(N)nc(N)c1C#CCc1cc2c(c(-c3ccc(O)c(F)c3)c1)OCO2 [Compound 38],–,–,–,–,–,–,–,MIC E. coli NR698 ([4]; Table 3): 0.001 µg/mL; IC50 ([5]; Table 3): 1250 nM; MIC E. coli 25922 ([6]; Table 3): 0.625 µg/mL
CCc1nc(N)nc(N)c1C#CCc1cc2c(c(-c3cc(F)c(O)c(F)c3)c1)OCO2 [Compound 39],–,–,–,–,–,–,–,MIC E. coli NR698 ([4]; Table 3): 0.001 µg/mL; IC50 ([5]; Table 3): 625 nM; MIC E. coli 25922 ([6]; Table 3): 0.625 µg/mL
CCc1nc(N)nc(N)c1C#CCc1cc2c(c(-c3cc(F)c(OC)c(F)c3)c1)OCO2 [Compound 40],–,–,–,–,–,–,–,MIC E. coli NR698 ([4]; Table 3): 0.78 µg/mL; IC50 ([5]; Table 3): > 20000 nM; MIC E. coli 25922 ([6]; Table 3): 5 µg/mL
